Data set [1] can be described thus: Nonspecific cytotoxic effects (CC50), CytoTox 96 kit.
Another data set addresses T1, 3CLpro of SARS-CoV-2 (Severe acute respiratory syndrome coronavirus 2, UniProt P0DTD1).
T1 construct: The codon-optimized cDNA of full length of 3CLpro of SARS-CoV-2; 6xHis (N); made in house; pET-28a(+) vector (points to E. coli, my inference)
Kind of data set: biochemical. The data set is classed as biochemical.

The structures appear in SMILES notation. Like-named read-outs stand apart in the source and are kept apart here.

Consider `CC(C)C[C@H](NC(=O)OC(Cc1ccccc1)C1CCC(F)(F)CC1)C(=O)N[C@H](C=O)C[C@@H]1CCNC1=O` (stereo partly drawn) [Compound 14b, 1-(4,4-Difluorocyclohexyl)-2-phenylethyl ((S)-4-methyl-1-oxo-1-(((S)-1-oxo-3-((S)-2-oxopyrrolidin-3-yl)propan-2-yl)amino)pentan-2-yl)carbamate], for which, in data set [1], the CC50 – broadly, the concentration that lowers cell viability or growth by half – at 72 h was greater than 100000 nM. Moreover, at 3CLpro of SARS-CoV-2, it took 230 nM to reach half-maximal inhibition (IC50).
`CCCC(OC(=O)N[C@@H](CC(C)C)C(=O)N[C@H](C=O)C[C@@H]1CCNC1=O)c1ccccc1` (stereo partly drawn) [Compound 23b, 1-Phenylbutyl ((S)-4-methyl-1-oxo-1-(((S)-1-oxo-3-((S)-2-oxopyrrolidin-3-yl)propan-2-yl)amino)pentan-2-yl)carbamate] yielded a CC50 at 72 h in data set [1] greater than 100000 nM. The “fold more potent than the corresponding 24b/c aldehyde and bisulfite adducts” value at 3CLpro of SARS-CoV-2 was determined as 27 fold. At 3CLpro of SARS-CoV-2 (read-out: IC50 against 3CLpro), the IC50 – broadly, the concentration that gives 50% inhibition – came to 150 nM.
In the case of `CC(C)C[C@H](NC(=O)OCC1CCC(F)(F)CC1)C(=O)N[C@@H](C[C@@H]1CCNC1=O)C(O)S(=O)(=O)O` (stereo partly drawn) [Compound 10c, Sodium (2S)-2-((S)-2-((((4,4-difluorocyclohexyl)methoxy)carbonyl)amino)-4-methylpentanamido)-1-hydroxy-3-((S)-2-oxopyrrolidin-3-yl)propane-1-sulfonate], the CC50 at 72 h in data set [1] is greater than 100000 nM. Also, the IC50 on 3CLpro of SARS-CoV-2 (read-out: IC50) was 450 nM.
Compound `CC(C)CC(NC(=O)OCC1C(c2ccccc2)C1(F)F)C(=O)NC(CC1CCNC1=O)C(O)S(=O)(=O)O` (stereo not shown) [GC1270] registered a half-inhibitory concentration (IC50) at 3CLpro of SARS-CoV-2 of 160 nM.
`[2H]C([2H])(OC(=O)N[C@@H](CC(C)C)C(=O)N[C@H](C=O)C[C@@H]1CCNC1=O)c1ccc(F)cc1` [Compound 20b, (4-Fluorophenyl)methyl-d2 ((S)-4-methyl-1-oxo-1-(((S)-1-oxo-3-((S)-2-oxopyrrolidin-3-yl)propan-2-yl)amino)pentan-2-yl)carbamate]: the CC50 at 72 h in data set [1] is greater than 100000 nM.
In the case of `CCCCC(OC(=O)N[C@@H](CC(C)C)C(=O)N[C@@H](C[C@@H]1CCNC1=O)C(O)S(=O)(=O)O)C1CCC(F)(F)CC1` (stereo partly drawn) [Compound 16c, Sodium (2S)-2-((2S)-2-((((1-(4,4-difluorocyclohexyl)pentyl)oxy)carbonyl)amino)-4-methylpentanamido)-1-hydroxy-3-((S)-2-oxopyrrolidin-3-yl)propane-1-sulfonate], the cytotoxic concentration (CC50) at 72 h in data set [1] is greater than 100000 nM. This compound registered a 50% inhibitory concentration (IC50) against 3CLpro of SARS-CoV-2 of 250 nM.
`CC(C)C[C@H](NC(=O)OCc1ccc(F)cc1)C(=O)N[C@@H](C[C@@H]1CCNC1=O)C(O)S(=O)(=O)O` (stereo partly drawn) [Compound 19c, Sodium (2S)-2-((S)-2-((((4-fluorobenzyl)oxy)carbonyl)amino)-4-methylpentanamido)-1-hydroxy-3-((S)-2-oxopyrrolidin-3-yl)propane-1-sulfonate] came in with a CC50 at 72 h in data set [1] greater than 100000 nM. The compound also had an IC50 at 3CLpro of SARS-CoV-2 of 380 nM.
As for `CC(C)C[C@H](NC(=O)OC(Cc1ccccc1)c1ccccc1)C(=O)N[C@@H](C[C@@H]1CCNC1=O)C(O)S(=O)(=O)O` (stereo partly drawn) [Compound 24c, Sodium (2S)-2-((2S)-2-(((1,2-diphenylethoxy)carbonyl)amino)-4-methylpentanamido)-1-hydroxy-3-((S)-2-oxopyrrolidin-3-yl)propane-1-sulfonate], the CC50 at 72 h in data set [1] was greater than 100000 nM. At 3CLpro of SARS-CoV-2, the IC50 is 3500 nM.
On to `CCCCC1CCC(OC(=O)NC(CC(C)C)C(=O)NC(C=O)CC2CCNC2=O)CC1` [Compound 4b, (1s,4S)-4-Butylcyclohexyl ((S)-4-methyl-1-oxo-1-(((S)-1-oxo-3-((S)-2-oxopyrrolidin-3-yl)propan-2-yl)amino)pentan-2-yl)carbamate], for which the 50% cytotoxic concentration (CC50) at 72 h in data set [1] was greater than 100000 nM. This compound also displayed an IC50 on 3CLpro of SARS-CoV-2 of 160 nM.
For the compound `CC(C)C[C@H](NC(=O)OCC(C)(C)Oc1ccc(Cl)cc1)C(=O)N[C@@H](CC1CCNC1=O)C(O)S(=O)(=O)O` (stereo partly shown) [MM-II-43], the half-inhibitory concentration (IC50) on 3CLpro of SARS-CoV-2 came out at 240 nM.
As to `CC(C)C[C@H](NC(=O)OCc1c(F)c(F)c(F)c(F)c1F)C(=O)N[C@H](C=O)CC1CCNC1=O` (stereo partly drawn) [Compound 21b, (Perfluorophenyl)methyl ((2S)-4-methyl-1-oxo-1-(((2S)-1-oxo-3-(2-oxopyrrolidin-3-yl)propan-2-yl)amino)pentan-2-yl) carbamate], the CC50 at 72 h in data set [1] was greater than 100000 nM.
For `CC(C)C[C@H](NC(=O)OCc1ccccc1F)C(=O)N[C@H](C=O)C[C@@H]1CCNC1=O` [Compound 17b, 2-Fluorobenzyl ((S)-4-methyl-1-oxo-1-(((S)-1-oxo-3-((S)-2-oxopyrrolidin-3-yl)propan-2-yl)amino)pentan-2-yl)carbamate], in data set [1], the CC50 at 72 h is greater than 100000 nM. This compound came in with a half-inhibitory concentration (IC50) against 3CLpro of SARS-CoV-2 of 380 nM.
On the same counts, the results for `CCCCC(OC(=O)N[C@@H](CC(C)C)C(=O)N[C@H](C=O)C[C@@H]1CCNC1=O)C1CCC(F)(F)CC1` (stereo partly drawn) [Compound 16b, 1-(4,4-Difluorocyclohexyl)pentyl ((S)-4-methyl-1-oxo-1-(((S)-1-oxo-3-((S)-2-oxopyrrolidin-3-yl)propan-2-yl)amino)pentan-2-yl)carbamate] are greater than 100000 nM and 160 nM.
Compound `[2H]C([2H])(OC(=O)N[C@@H](CC(C)C)C(=O)N[C@H](C=O)CC1CCNC1=O)C1CCC(F)(F)CC1` (stereo partly drawn) [Compound 11b, (4,4-Difluorocyclohexyl) methyl-d2 ((2S)-4-methyl-1-oxo-1-(((2S)-1-oxo-3-(2-oxopyrrolidin-3-yl)propan-2-yl)amino)pentan-2-yl) carbamate] had a CC50 at 72 h in data set [1] greater than 100000 nM.
The compound `CC(C)C[C@H](NC(=O)OCc1ccccc1F)C(=O)N[C@@H](C[C@@H]1CCNC1=O)C(O)S(=O)(=O)O` (stereo partly drawn) [Compound 17c, Sodium (2S)-2-((S)-2-((((2-fluorobenzyl)oxy)carbonyl)amino)-4-methylpentanamido)-1-hydroxy-3-((S)-2-oxopyrrolidin-3-yl)propane-1-sulfonate] had a CC50 at 72 h in data set [1] greater than 100000 nM. Also, the IC50 at 3CLpro of SARS-CoV-2 worked out at 400 nM.
`CC(C)C[C@H](NC(=O)OCC1CCC(F)(F)CC1)C(=O)N[C@H](C=O)C[C@@H]1CCNC1=O` [Compound 10b, (4,4-Difluorocyclohexyl)methyl ((S)-4-methyl-1-oxo-1-(((S)-1-oxo-3-((S)-2-oxopyrrolidin-3-yl)propan-2-yl)amino)pentan-2-yl)carbamate] showed a CC50 at 72 h in data set [1] greater than 100000 nM.
On to `CC(C)CC(NC(=O)OCC1C(c2ccccc2)C1(F)F)C(=O)NC(C=O)CC1CCNC1=O` (stereo not shown) [GC1269], for which, on 3CLpro of SARS-CoV-2, the IC50 is 140 nM.
On to `[2H]C([2H])(OC(=O)N[C@@H](CC(C)C)C(=O)N[C@@H](C[C@@H]1CCNC1=O)C(O)S(=O)(=O)[O-])c1ccc(F)cc1.[Na+]` (stereo partly drawn) [Compound 20c, Sodium (2S)-2-((S)-2-((((4-fluorophenyl)methoxy-d2)carbonyl)amino)-4-methylpentan amido)-1-hydroxy-3-((S)-2-oxopyrrolidin-3-yl)propane-1-sulfonate], for which, in data set [1], the CC50 at 72 h is greater than 100000 nM.
`CC(C)C[C@H](NC(=O)OCc1ccc(F)cc1)C(=O)N[C@H](C=O)C[C@@H]1CCNC1=O` [Compound 19b, 4-Fluorobenzyl ((S)-4-methyl-1-oxo-1-(((S)-1-oxo-3-((S)-2-oxopyrrolidin-3-yl)propan-2-yl)amino)pentan-2-yl)carbamate] showed a CC50 at 72 h in data set [1] greater than 100000 nM.
`CC(C)C[C@H](NC(=O)OCC(C)(C)Oc1ccc(Cl)cc1)C(=O)N[C@H](C=O)CC1CCNC1=O` (stereo partly shown) [MM-II-42]: on 3CLpro of SARS-CoV-2, the IC50 came to 260 nM.

Values taken from patent publication US12583820B2, “Broad spectrum antivirals against coronavirus” (priority 2020, dated 2026).
